Tests used:
Format in all cases: in vivo
Conditions in all cases: day 7 after sowing, scale 0 to 100
Ivyleaf morningglory [1] = test: Pot test, herbicidal effect with fludioxonil-treated corn seeds and soil-applied PPO inhibitor
Method: (§1) The evaluation of the herbicidal effect is classified into 0 to 100, in which the numeral “0” indicates no or little difference in the state of germination or growth of test weeds as compared with the untreated weeds at the time of the investigation, and the numeral “100” indicates the complete death of the test plants or the complete suppression of their germination or growth.
(§2) In a plastic cup of 100 mm in inside diameter and 40 mm in height, 19.8 mg of a fludioxonil suspension (a suspension containing 20% of fludioxonil, trade name: Savior flowable, manufactured by Syngenta Japan K. K.) and 40 corn seeds were placed. The plastic cup was shaken by the hand so that the fludioxonil suspension was attached to the corn seeds. The weight of 40 corn seeds was 13.2 g, and the amount of fludioxonil by the above treatment was calculated as 30 g per 100 kg of the corn seeds.
In the same manner, 193.5 mg of the fludioxonil suspension was attached to 40 corn seeds. The weight of 40 corn seeds was 12.9 g, and the amount of fludioxonil by the above treatment was calculated as 300 g per 100 kg of the corn seeds.
(§3) A soil was packed in a plastic pot of 120 mm in inside diameter×80 mm in height. The above treated corn seeds were sown in this pot at a rate of two seeds per pot, and the seeds of ivyleaf morningglory were sown at a rate of four seeds per pot. On the day of sowing the corn seeds and after sowing the corn seeds, an aqueous diluted solution (113 mg of active ingredient/L or 225 mg of active ingredient/L) of a flumioxazin granular wettable powder (a granular wettable powder containing 51% of flumioxazin, trade name: Valor SX, manufactured by Valent USA), an aqueous diluted solution (226 mg of active ingredient/L or 1130 mg of active ingredient/L) of a sulfentrazone granular wettable powder (a granular wettable powder containing 75% of sulfentrazone, trade name: Cover, manufactured by DuPont), or an aqueous diluted solution (113 mg/L or 226 mg/L) of saflufenacil was uniformly sprayed on the soil surface with a sprayer so as to apply the amount described in Tables 4 to 6. The aqueous diluted solution of saflufenacil was prepared by dissolving a predetermined amount of saflufenacil in acetone containing 2% (w/v) of Tween 20, and diluting this solution with water so as to have an acetone concentration of 10% by volume.
On day 7 after sowing the seeds of corn and ivyleaf morningglory, the herbicidal effect was investigated.

Ivyleaf morningglory [2] = test: Pot test, herbicidal effect with fludioxonil-treated soybean seeds and soil-applied PPO inhibitor
Method: as §1
as §2, with “14.25” for “19.8”, “soybean” for “corn”, “9.55” for “13.2”
In the same manner, 151.4 mg of the fludioxonil suspension was attached to 40 soybean seeds. The weight of 40 soybean seeds was 10.1 g, and the amount of fludioxonil by the above treatment was calculated as 300 g per 100 kg of the soybean seeds.
as §3, with “soybean” for “corn”, “1” for “4”, “3.” for “6.”
On day 7 after sowing the seeds of soybean and ivyleaf morningglory, the herbicidal effect was investigated.

Ivyleaf morningglory [3] = test: Pot test, herbicidal effect with fludioxonil-treated cotton seeds and soil-applied PPO inhibitor
Method: as §1
In a plastic cup of 100 mm in inside diameter and 40 mm in height, 8.55 mg of a fludioxonil suspension (a suspension containing 20% of fludioxonil, trade name: Savior flowable, manufactured by Syngenta Japan K. K.) and 40 cotton seeds were placed. The plastic cup was shaken by the hand so that the fludioxonil suspension was attached to the cotton seeds. The weight of 40 cottonseeds was 5.7 g, and the amount of fludioxonil by the above treatment was calculated as 30 g per 100 kg of the cotton seeds.
In the same manner, 84.8 mg of the fludioxonil suspension was attached to 40 cotton seeds. The weight of 40 cotton seeds was 5.65 g, and the amount of fludioxonil by the above treatment was calculated as 300 g per 100 kg of the cotton seeds.
as §3, with “cotton” for “treated corn”, “cotton” for “corn”, “7” for “4”, “9.” for “6.”
On day 7 after sowing the seeds of cotton and ivyleaf morningglory, the herbicidal effect was investigated.

[4] = fludioxonil 30 g/100 kg of seeds, PPO inhibitor None
[5] = fludioxonil 300 g/100 kg of seeds, PPO inhibitor None
[6] = fludioxonil None, PPO inhibitor 50 g/ha soil surface
[7] = fludioxonil None, PPO inhibitor 100 g/ha soil surface
[8] = fludioxonil None, PPO inhibitor 500 g/ha soil surface

SMILES: N#Cc1c[nH]cc1-c1cccc2c1OC(F)(F)O2 [fludioxonil]
- Herbicidal effect Ivyleaf morningglory (Ivyleaf morningglory [1]; [4]): 0
- Herbicidal effect Ivyleaf morningglory (Ivyleaf morningglory [1]; [5]): 0
- Herbicidal effect Ivyleaf morningglory (Ivyleaf morningglory [2]; [4]): 0
- Herbicidal effect Ivyleaf morningglory (Ivyleaf morningglory [2]; [5]): 0
- Herbicidal effect Ivyleaf morningglory (Ivyleaf morningglory [3]; [4]): 0
- Herbicidal effect Ivyleaf morningglory (Ivyleaf morningglory [3]; [5]): 0

SMILES: C#CCN1C(=O)COc2cc(F)c(N3C(=O)C4=C(CCCC4)C3=O)cc21 [flumioxazin]
- Herbicidal effect Ivyleaf morningglory (Ivyleaf morningglory [1]; [6]): 20
- Herbicidal effect Ivyleaf morningglory (Ivyleaf morningglory [1]; [7]): 50
- Herbicidal effect Ivyleaf morningglory (Ivyleaf morningglory [2]; [7]): 20
- Herbicidal effect Ivyleaf morningglory (Ivyleaf morningglory [3]; [7]): 30

SMILES: CC(C)N(C)S(=O)(=O)NC(=O)c1cc(-n2c(=O)cc(C(F)(F)F)n(C)c2=O)c(F)cc1Cl [saflufenacil]
- Herbicidal effect Ivyleaf morningglory (Ivyleaf morningglory [1]; [7]): 30
- Herbicidal effect Ivyleaf morningglory (Ivyleaf morningglory [2]; [7]): 40
- Herbicidal effect Ivyleaf morningglory (Ivyleaf morningglory [3]; [6]): 30
- Herbicidal effect Ivyleaf morningglory (Ivyleaf morningglory [3]; [7]): 40

SMILES: Cc1nn(-c2cc(NS(C)(=O)=O)c(Cl)cc2Cl)c(=O)n1C(F)F [sulfentrazone]
- Herbicidal effect Ivyleaf morningglory (Ivyleaf morningglory [1]; [7]): 40
- Herbicidal effect Ivyleaf morningglory (Ivyleaf morningglory [2]; [7]): 20
- Herbicidal effect Ivyleaf morningglory (Ivyleaf morningglory [2]; [8]): 60
- Herbicidal effect Ivyleaf morningglory (Ivyleaf morningglory [3]; [8]): 30
